Measurements from patent US20160279069A1, “MATERIALS AND METHODS FOR SUSTAINED RELEASE OF ACTIVE COMPOUNDS” (The Florida International University Board of Trustees, priority 2015, published 2016).

Key:
human astrocytes (HAs) = tested on: human astrocytes (HAs)
Method: In vitro cytotoxicity was assessed by MTT cell viability assay, using a CellTiter 96 Aqueous one-solution cell proliferation assay kit (catalog G3580; Promega, USA) (Nair, M. et al., Nat Commun. 2013; 4:1707). HAs were seeded in 96-well tissue plates at a density of 5×10^3 cells per well. […] Finally, approximately 100 μL stop solution (about 20% sodium dodecyl sulfate in about 50% dimethyl formamide) was added into each well, and absorbance was recorded at 550 nm by a microplate reader (Synergy HT; BioTek Instruments, Inc.).

[1] = tested on: HIV-1Ba-L infected primary human astrocytes (HA); experiment: p24 antigen ELISA in HIV-infected primary human astrocytes (latency breaking and antiviral efficacy); assay type: cell-based; conditions: tested about 1 to about 10 μM, solution phase
Method: FIG. 11 represents an evaluation of the antiviral efficacy of an exemplary embodiment of the drug delivery system in suppressing p24 antigen levels in HIV-infected human astrocytes. The drug delivery system was added on the second day after HIV infection (HIV-1BaL) in equimolar concentration. Supernatants were evaluated on the third, fifth, and seventh day postinfection for p24 levels and were checked for its efficacy, along with its percentage cell viability, using MTT assay. […] Viral p24 protein in the culture supernatant was measured by enzyme-linked immunosorbent assay. Error bars indicate the standard deviation of triplicate data points and are representative of at least three experiments. Dotted lines represent the percentage cell viability; each point represents treatment period. […] NS=non-significant. MTT=3-(4,5-dimethylthiazol-2-yl)-2,5-diphenyltetrazolium bromide.
Latency-breaking and antiviral efficacy of the formulation was determined via quantification of p24 antigen in a primary human astrocytes (HA) infection model (Nair, M. et al., Nat Commun. 2013; 4:1707). […] The sustained-release ability of the finally assembled formulation ([MNP+tenofovir]2+vorinostat) was also evaluated over a treatment period of 5 days in the HA model. […]

## O=C(CCCCCCC(=O)Nc1ccccc1)NO [vorinostat]
Human astrocytes (HAs)
  cytotoxicity of optimized vorinostat dose: nontoxic
[1]
  vorinostat concentration giving maximum p24 value (latency reversal): 1 µM
